This is an account of results in paper PMC8781450, “Isoquinoline Alkaloids as Protein Tyrosine Phosphatase Inhibitors from a Deep-Sea-Derived Fungus Aspergillus puniceus” (Marine Drugs, 2022).

≈ marks a conversion by molar mass, not a printed value.

For orientation: IC50 means the concentration needed to halve the response being measured. The term MIC denotes the smallest concentration in the dilution series that meets the test's criterion for growth inhibition.

Chain of SHP1 (P29350 whole entry): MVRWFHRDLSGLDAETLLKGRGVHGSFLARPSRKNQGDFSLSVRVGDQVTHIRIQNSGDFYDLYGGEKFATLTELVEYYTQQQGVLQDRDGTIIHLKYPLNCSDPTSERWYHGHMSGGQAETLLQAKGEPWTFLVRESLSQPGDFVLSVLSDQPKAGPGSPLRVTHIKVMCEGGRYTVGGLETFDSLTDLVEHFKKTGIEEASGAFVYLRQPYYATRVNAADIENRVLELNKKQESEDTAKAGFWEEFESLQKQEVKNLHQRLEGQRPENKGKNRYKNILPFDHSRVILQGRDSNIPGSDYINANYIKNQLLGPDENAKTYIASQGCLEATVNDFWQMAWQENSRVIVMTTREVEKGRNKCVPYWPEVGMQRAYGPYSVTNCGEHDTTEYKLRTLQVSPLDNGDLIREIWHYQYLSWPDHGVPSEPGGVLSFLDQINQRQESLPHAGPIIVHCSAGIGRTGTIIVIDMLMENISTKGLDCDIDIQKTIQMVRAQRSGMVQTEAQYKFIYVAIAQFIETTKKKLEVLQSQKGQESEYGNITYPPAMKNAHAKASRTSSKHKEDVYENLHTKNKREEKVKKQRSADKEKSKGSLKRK

The first data set concerns the target SHP1 (Homo sapiens, UniProt P29350). The data set can be described thus: Protein phosphatase inhibition assay, SHP1.
Details: not given
Turning to `COc1cc(O)c2cnccc2c1` [Compound 1, 6-methoxy-8-hydroxy-isoquinolin], it took 38.3 µM to reach half-maximal inhibition (IC50).

As for `COc1cc2ccncc2c(O)c1C` [Compound 2, 6-methoxy-7-methyl-8-hydroxy-isoquinolin], the IC50 was more than 200 µM.

The compound `COc1cc2ccncc2c(O)c1Cc1c(OC)cc2ccncc2c1O` [Compound 3, Puniceusine C] showed an IC50 of 20.7 µM.

With `COc1cc2ccncc2c(O)c1Cc1c(OC)cc(O)c2cnccc12` [Compound 4, Puniceusine D], the IC50 was determined as 130 µM.

`COc1cc2ccncc2c(O)c1Cc1c(OC)c(C)c(O)c2cnccc12` [Compound 5, Puniceusine E] gave an IC50 of 145 µM.

For the compound `COc1cc2ccncc2c(O)c1CC(C)C(=O)O` (stereo not drawn) [Compound 6, Puniceusine F], the IC50 turned out to be 200 µM.

In turn, `COc1cc2ccncc2c2c(C)c(O)c(C)cc12` [Compound 7, Puniceusine G] came in with an IC50 of more than 200 µM.

Consider `COc1cc2ccncc2c(O)c1Cc1c(O)cc(O)c(OC)c1C(=O)C(C)=O` [Compound 8, Puniceusine H], for which the 50% inhibitory concentration (IC50) is 100 µM.

The target of the next data set is T1, PTP1B (Homo sapiens, UniProt P18031).
T1 sequence (P18031 1-435): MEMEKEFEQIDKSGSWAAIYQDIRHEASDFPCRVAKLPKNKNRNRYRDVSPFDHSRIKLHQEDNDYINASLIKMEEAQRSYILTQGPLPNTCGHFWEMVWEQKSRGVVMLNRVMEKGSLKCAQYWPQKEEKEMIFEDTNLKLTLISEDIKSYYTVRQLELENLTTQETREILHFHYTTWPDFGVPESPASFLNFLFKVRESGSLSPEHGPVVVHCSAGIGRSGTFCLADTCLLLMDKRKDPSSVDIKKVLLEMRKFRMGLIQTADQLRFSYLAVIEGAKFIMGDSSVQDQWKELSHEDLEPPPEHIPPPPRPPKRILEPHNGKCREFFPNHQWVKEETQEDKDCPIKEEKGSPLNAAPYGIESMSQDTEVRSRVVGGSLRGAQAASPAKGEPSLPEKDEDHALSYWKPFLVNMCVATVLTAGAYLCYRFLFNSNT
The data set can be described thus: Protein phosphatase inhibition assay, PTP1B.
Details: not given
Regarding `COc1cc(O)c2cnccc2c1` [Compound 1, 6-methoxy-8-hydroxy-isoquinolin], the midpoint of inhibition, the IC50, lay at 182 µM.

Compound `COc1cc2ccncc2c(O)c1C` [Compound 2, 6-methoxy-7-methyl-8-hydroxy-isoquinolin] showed an IC50 of more than 200 µM.

In turn, `COc1cc2ccncc2c(O)c1Cc1c(OC)cc2ccncc2c1O` [Compound 3, Puniceusine C] displayed an IC50 of 64.5 µM.

`COc1cc2ccncc2c(O)c1Cc1c(OC)cc(O)c2cnccc12` [Compound 4, Puniceusine D] came in with a concentration for half-maximal inhibition (IC50) of 150 µM.

On to `COc1cc2ccncc2c(O)c1Cc1c(OC)c(C)c(O)c2cnccc12` [Compound 5, Puniceusine E], for which half-maximal inhibition (IC50) required 200 µM.

`COc1cc2ccncc2c(O)c1CC(C)C(=O)O` (stereo not drawn) [Compound 6, Puniceusine F] registered an IC50 of more than 200 µM.

Regarding `COc1cc2ccncc2c2c(C)c(O)c(C)cc12` [Compound 7, Puniceusine G], the IC50 is more than 200 µM.

In turn, `COc1cc2ccncc2c(O)c1Cc1c(O)cc(O)c(OC)c1C(=O)C(C)=O` [Compound 8, Puniceusine H] came in with a half-maximal inhibitory concentration (IC50) of 180 µM.

The next data set concerns the target T2, TCPTP (Homo sapiens, UniProt P17706).
T2 sequence (P17706 1-415): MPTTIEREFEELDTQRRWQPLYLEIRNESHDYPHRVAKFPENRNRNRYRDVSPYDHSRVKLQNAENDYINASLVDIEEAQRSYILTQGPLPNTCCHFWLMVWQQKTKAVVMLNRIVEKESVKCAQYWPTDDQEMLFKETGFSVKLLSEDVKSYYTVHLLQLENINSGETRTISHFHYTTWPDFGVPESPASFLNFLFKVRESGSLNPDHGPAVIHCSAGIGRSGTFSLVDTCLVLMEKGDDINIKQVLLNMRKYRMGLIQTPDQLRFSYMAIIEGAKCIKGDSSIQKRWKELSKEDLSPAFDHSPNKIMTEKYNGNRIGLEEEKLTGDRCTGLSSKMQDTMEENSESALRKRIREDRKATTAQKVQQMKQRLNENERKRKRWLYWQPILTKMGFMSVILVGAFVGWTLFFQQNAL
Nature of the data set: Protein phosphatase inhibition assay, TCPTP.
Details: not given
In turn, `COc1cc(O)c2cnccc2c1` [Compound 1, 6-methoxy-8-hydroxy-isoquinolin] showed an IC50 of 197 µM.

As to `COc1cc2ccncc2c(O)c1C` [Compound 2, 6-methoxy-7-methyl-8-hydroxy-isoquinolin], the IC50 was more than 200 µM.

Compound `COc1cc2ccncc2c(O)c1Cc1c(OC)cc2ccncc2c1O` [Compound 3, Puniceusine C] displayed an IC50 of more than 200 µM.

Consider `COc1cc2ccncc2c(O)c1Cc1c(OC)cc(O)c2cnccc12` [Compound 4, Puniceusine D], for which the IC50 is more than 200 µM.

`COc1cc2ccncc2c(O)c1Cc1c(OC)c(C)c(O)c2cnccc12` [Compound 5, Puniceusine E] displayed an IC50 of more than 200 µM.

In turn, `COc1cc2ccncc2c(O)c1CC(C)C(=O)O` (stereo not drawn) [Compound 6, Puniceusine F] yielded a concentration for half-maximal inhibition (IC50) of more than 200 µM.

For the compound `COc1cc2ccncc2c2c(C)c(O)c(C)cc12` [Compound 7, Puniceusine G], the concentration for half-maximal inhibition (IC50) was more than 200 µM.

Compound `COc1cc2ccncc2c(O)c1Cc1c(O)cc(O)c(OC)c1C(=O)C(C)=O` [Compound 8, Puniceusine H] displayed an IC50 of more than 200 µM.

The target in a further data set is T3, CD45 (Homo sapiens, UniProt P08575).
T3 sequence (P08575 26-1306): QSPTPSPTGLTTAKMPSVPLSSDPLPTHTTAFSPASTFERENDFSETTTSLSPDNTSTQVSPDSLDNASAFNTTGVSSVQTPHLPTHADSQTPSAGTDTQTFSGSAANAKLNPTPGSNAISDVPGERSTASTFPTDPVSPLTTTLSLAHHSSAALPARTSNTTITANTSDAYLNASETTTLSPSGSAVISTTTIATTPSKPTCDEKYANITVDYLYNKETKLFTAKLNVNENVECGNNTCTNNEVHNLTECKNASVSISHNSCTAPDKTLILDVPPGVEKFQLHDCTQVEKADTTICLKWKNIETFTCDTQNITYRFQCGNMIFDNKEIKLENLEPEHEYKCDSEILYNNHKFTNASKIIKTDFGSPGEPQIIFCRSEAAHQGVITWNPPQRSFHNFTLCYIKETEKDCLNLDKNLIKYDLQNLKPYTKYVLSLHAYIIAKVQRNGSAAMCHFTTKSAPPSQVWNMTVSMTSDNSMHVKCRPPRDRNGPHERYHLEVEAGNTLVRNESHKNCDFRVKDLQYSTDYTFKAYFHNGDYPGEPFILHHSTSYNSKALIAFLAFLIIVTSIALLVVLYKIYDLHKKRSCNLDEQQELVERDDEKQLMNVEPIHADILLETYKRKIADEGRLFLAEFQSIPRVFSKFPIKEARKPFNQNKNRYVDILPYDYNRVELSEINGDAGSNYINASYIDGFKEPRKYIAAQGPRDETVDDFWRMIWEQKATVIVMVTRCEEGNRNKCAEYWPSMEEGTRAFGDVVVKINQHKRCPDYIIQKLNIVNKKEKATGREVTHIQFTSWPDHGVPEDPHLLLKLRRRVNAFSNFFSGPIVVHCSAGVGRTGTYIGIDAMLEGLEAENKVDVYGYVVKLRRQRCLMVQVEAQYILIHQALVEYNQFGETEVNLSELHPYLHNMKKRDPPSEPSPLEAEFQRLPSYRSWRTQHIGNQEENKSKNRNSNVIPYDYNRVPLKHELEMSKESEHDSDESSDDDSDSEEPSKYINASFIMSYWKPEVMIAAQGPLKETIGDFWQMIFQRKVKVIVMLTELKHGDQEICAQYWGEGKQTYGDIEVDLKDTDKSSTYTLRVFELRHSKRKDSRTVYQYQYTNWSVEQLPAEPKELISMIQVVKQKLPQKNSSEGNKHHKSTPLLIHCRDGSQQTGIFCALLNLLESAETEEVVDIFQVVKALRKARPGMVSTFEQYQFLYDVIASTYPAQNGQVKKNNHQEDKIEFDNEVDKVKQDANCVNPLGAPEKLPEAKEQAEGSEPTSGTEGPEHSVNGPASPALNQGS
The data set can be described thus: Protein phosphatase inhibition assay, CD45.
Details: not given
In turn, `COc1cc(O)c2cnccc2c1` [Compound 1, 6-methoxy-8-hydroxy-isoquinolin] gave an IC50 of 29.7 µM.

With `COc1cc2ccncc2c(O)c1C` [Compound 2, 6-methoxy-7-methyl-8-hydroxy-isoquinolin], the IC50 was more than 200 µM.

The compound `COc1cc2ccncc2c(O)c1Cc1c(OC)cc2ccncc2c1O` [Compound 3, Puniceusine C] yielded an IC50 of 8.4 µM.

In the case of `COc1cc2ccncc2c(O)c1Cc1c(OC)cc(O)c2cnccc12` [Compound 4, Puniceusine D], 5.6 µM corresponded to half-maximal inhibition (IC50).

Consider `COc1cc2ccncc2c(O)c1Cc1c(OC)c(C)c(O)c2cnccc12` [Compound 5, Puniceusine E], for which 103 µM corresponded to half-maximal inhibition (IC50).

Consider `COc1cc2ccncc2c(O)c1CC(C)C(=O)O` (stereo not drawn) [Compound 6, Puniceusine F], for which the IC50 is more than 200 µM.

`COc1cc2ccncc2c2c(C)c(O)c(C)cc12` [Compound 7, Puniceusine G] registered an IC50 of more than 200 µM.

The compound `COc1cc2ccncc2c(O)c1Cc1c(O)cc(O)c(OC)c1C(=O)C(C)=O` [Compound 8, Puniceusine H] displayed an IC50 of 49 µM.

System in a further data set: not listed separately
Nature of the data set: Cytotoxicity by CCK-8 method. Type of data set: cell-based. The settings on record: human, H1975 lung adenocarcinoma cells, read-out: Cytotoxicity (IC50) H1975 Cell (after 24 h). The protocol: Cytotoxic activity was evaluated using human lung adenocarcinoma cell line H1975 by CCK-8 method. Briefly, each of the test compounds was dissolved in DMSO and further diluted to give final concentrations of 80, 40, 20, 10, 5, 2.5, and 1.25 µg/mL, respectively. H1975 cells (5 × 10^3 cells/plate) were seeded in 96-well plates and treated with compounds at the indicated concentration for 24 h, and then 10 μL CCK-8 reagent was added to each well, and the plates were incubated at 37 °C for another 4 h. Next, the optical density was measured at a wavelength of 450 nm with the Bio-Rad (Hercules, CA, USA) microplate reader. Dose–response curves were generated, and the IC50 values were calculated from the linear portion of log dose–response curves.
For orientation: Tetrazolium assays rely on reduction of a dye to a coloured formazan, in cell work by metabolically active cells.
For the compound `COc1cc(O)c2cnccc2c1` [Compound 1, 6-methoxy-8-hydroxy-isoquinolin], the IC50 at 24 h worked out at 76.2 µM.

As for `COc1cc2ccncc2c(O)c1C` [Compound 2, 6-methoxy-7-methyl-8-hydroxy-isoquinolin], the IC50 at 24 h was more than 80 µM.

In the case of `COc1cc2ccncc2c(O)c1Cc1c(OC)cc2ccncc2c1O` [Compound 3, Puniceusine C], the IC50 at 24 h worked out at 71.3 µM.

As to `COc1cc2ccncc2c(O)c1Cc1c(OC)cc(O)c2cnccc12` [Compound 4, Puniceusine D], the IC50 at 24 h is 11 µM.

`COc1cc2ccncc2c(O)c1Cc1c(OC)c(C)c(O)c2cnccc12` [Compound 5, Puniceusine E]: the IC50 at 24 h was more than 80 µM.

Consider `COc1cc2ccncc2c(O)c1CC(C)C(=O)O` (stereo not drawn) [Compound 6, Puniceusine F], for which the IC50 at 24 h was more than 80 µM.

In the case of `COc1cc2ccncc2c2c(C)c(O)c(C)cc12` [Compound 7, Puniceusine G], the IC50 at 24 h is more than 80 µM.

Turning to `COc1cc2ccncc2c(O)c1Cc1c(O)cc(O)c(OC)c1C(=O)C(C)=O` [Compound 8, Puniceusine H], the IC50 at 24 h is more than 80 µM.

For a further data set, the target named is LAR (Homo sapiens, UniProt P10586). The data set can be described thus: Protein phosphatase inhibition assay, LAR.
Chain of LAR (P10586 30-1907): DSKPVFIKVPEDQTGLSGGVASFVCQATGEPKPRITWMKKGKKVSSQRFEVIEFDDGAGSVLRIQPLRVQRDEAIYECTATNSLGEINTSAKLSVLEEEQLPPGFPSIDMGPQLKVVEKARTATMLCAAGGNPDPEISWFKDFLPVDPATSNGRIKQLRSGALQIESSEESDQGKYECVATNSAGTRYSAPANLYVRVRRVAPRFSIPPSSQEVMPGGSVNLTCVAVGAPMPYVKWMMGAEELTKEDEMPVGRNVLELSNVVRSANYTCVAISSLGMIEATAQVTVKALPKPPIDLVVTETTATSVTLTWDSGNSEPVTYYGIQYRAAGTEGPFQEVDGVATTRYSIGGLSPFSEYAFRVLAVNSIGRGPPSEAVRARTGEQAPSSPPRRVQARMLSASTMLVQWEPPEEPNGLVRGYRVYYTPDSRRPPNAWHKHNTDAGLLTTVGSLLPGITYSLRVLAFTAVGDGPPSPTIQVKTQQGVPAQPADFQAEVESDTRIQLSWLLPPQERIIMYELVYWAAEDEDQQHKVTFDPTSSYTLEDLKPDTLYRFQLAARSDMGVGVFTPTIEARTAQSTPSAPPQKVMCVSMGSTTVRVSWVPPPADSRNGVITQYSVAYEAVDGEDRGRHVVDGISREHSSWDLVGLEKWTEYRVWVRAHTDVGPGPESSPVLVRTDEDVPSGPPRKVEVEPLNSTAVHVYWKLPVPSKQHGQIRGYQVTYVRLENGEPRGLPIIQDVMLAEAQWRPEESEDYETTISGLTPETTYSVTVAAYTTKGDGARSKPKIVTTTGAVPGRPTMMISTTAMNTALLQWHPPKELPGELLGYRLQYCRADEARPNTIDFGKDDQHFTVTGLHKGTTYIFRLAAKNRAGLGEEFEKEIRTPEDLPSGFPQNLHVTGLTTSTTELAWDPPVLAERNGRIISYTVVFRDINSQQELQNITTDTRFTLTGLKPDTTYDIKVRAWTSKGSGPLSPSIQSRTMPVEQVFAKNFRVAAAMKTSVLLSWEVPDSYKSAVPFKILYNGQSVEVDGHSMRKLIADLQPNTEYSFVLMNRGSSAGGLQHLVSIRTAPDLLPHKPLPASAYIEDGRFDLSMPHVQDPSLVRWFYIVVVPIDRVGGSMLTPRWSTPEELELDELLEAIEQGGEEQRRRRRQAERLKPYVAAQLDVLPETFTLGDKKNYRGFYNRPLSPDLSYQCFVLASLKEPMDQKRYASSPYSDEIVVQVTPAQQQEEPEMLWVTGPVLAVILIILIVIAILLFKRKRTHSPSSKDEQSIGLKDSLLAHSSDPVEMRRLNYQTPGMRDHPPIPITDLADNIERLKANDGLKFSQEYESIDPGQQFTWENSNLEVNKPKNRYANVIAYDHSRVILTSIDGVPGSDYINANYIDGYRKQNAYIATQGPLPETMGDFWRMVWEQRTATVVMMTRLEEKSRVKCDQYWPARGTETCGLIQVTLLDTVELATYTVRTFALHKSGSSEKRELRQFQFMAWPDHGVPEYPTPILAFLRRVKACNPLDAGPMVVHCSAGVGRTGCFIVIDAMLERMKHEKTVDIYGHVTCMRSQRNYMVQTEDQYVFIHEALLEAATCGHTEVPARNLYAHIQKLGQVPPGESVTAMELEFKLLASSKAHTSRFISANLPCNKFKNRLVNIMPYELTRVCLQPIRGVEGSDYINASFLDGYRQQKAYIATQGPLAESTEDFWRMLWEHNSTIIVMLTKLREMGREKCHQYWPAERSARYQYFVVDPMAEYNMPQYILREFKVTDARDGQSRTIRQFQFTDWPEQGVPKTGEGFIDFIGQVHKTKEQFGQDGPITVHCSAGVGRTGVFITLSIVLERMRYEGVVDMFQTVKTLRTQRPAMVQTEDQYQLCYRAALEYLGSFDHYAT
Details: not given
Consider `COc1cc(O)c2cnccc2c1` [Compound 1, 6-methoxy-8-hydroxy-isoquinolin], for which half-maximal inhibition (IC50) required 100 µM.

Take `COc1cc2ccncc2c(O)c1C` [Compound 2, 6-methoxy-7-methyl-8-hydroxy-isoquinolin]: the IC50 is more than 200 µM.

Regarding `COc1cc2ccncc2c(O)c1Cc1c(OC)cc2ccncc2c1O` [Compound 3, Puniceusine C], half-maximal inhibition (IC50) required 21.9 µM.

`COc1cc2ccncc2c(O)c1Cc1c(OC)c(C)c(O)c2cnccc12` [Compound 5, Puniceusine E] yielded a half-inhibitory concentration (IC50) of more than 200 µM.

With `COc1cc2ccncc2c(O)c1CC(C)C(=O)O` (stereo not drawn) [Compound 6, Puniceusine F], the IC50 is more than 200 µM.

On to `COc1cc2ccncc2c2c(C)c(O)c(C)cc12` [Compound 7, Puniceusine G], for which the IC50 is more than 200 µM.

The compound `COc1cc2ccncc2c(O)c1Cc1c(O)cc(O)c(OC)c1C(=O)C(C)=O` [Compound 8, Puniceusine H] registered an IC50 of more than 200 µM.

A further data set deals with Escherichia coli. The data set can be described thus: Antibacterial 2-fold dilution assay, E. coli. The settings on record: 12 h, read-out: MIC, Escherichia coli.
Experimental: Antibacterial activities of 1–14 against E. coli, S. aureus and MRSA were evaluated using the 2-fold dilution assay in 96-microwell plates. Briefly, all the indicator bacteria were cultured on Luria−Bertani (LB) agar plates at 37 °C for 12 h, and then a single colony was picked into LB liquid medium and cultivated on a rotary shaker at 37 °C for 12 h. Then, the bacterial suspensions with LB medium were diluted until the difference of the OD600 values between the bacterial suspensions and the medium was 0.01~0.02. […] The 96-well plates were incubated at 37 °C for 12 h. MIC value was determined as the lowest concentration with no visible bacterial growth. Ampicillin was used as the positive control and DMSO as the negative control. All experiments were performed three times.
Turning to `COc1cc2ccncc2c(O)c1Cc1c(OC)cc(O)c2cnccc12` [Compound 4, Puniceusine D], the MIC is 100 µg/mL (≈ 276 µM).
